We go through one compound from patent US20040102361A1, “Pharmaceutical composition for the treatment of pulmonary arterial hypertension” (priority 2002, published 2004).

Series [1] relates to patients with severe pulmonary arterial hypertension. Kind of series: Clinical trial AC-052-355: vital signs (systolic blood pressure, heart rate), change from baseline to week 16. Particulars: human, in vivo. As to the method:
(§1) This was a double-blind, randomized, placebo-controlled study to assess the effects of bosentan on hemodynamics, safety and tolerability in patients with severe pulmonary arterial hypertension when combined with the initiation of epoprostenol therapy.
(§2) Study design: The duration of the study was 16 weeks, 2:1 bosentan:placebo randomization. All patients received the starting epoprostenol dose of 2 ng/kg/min for 2 days, then they were randomized to receive either bosentan or placebo. Every 2 weeks thereafter, epoprostenol was increased by 2 ng/kg/min up to the target dose of 14±2 ng/kg/min by week 16. All patients received epoprostenol together with either bosentan or placebo for 16 weeks. Hemodynamic assessments were performed at baseline (prior to start of therapy) and again after 16 weeks of therapy. Safety monitoring was performed throughout the study duration.
(§3) Secondary endpoints: Changes from baseline to week 16 in CI (Cardiac Index), PVR (Pulmonary Vascular Resistance), […] (mean pulmonary arterial pressure), and mRAP (mean right atrial pressure); changes from baseline to week 16 in walk distance (6-min walk test), dyspnea fatigue rating, WHO functional class; and safety and tolerability.
(§4) Thirty-three patients entered the study: 11 patients received epoprostenol alone, while 22 patients received bosentan with epoprostenol.

Series [2] shares this test system. In words: Clinical trial AC-052-355: treatment emergent adverse events. It counts as in vivo. The following applies: 16 weeks. On the procedure: as §1, §2, §3, §4
The test system is the same in series [3]. In words: Clinical trial AC-052-355: hemodynamic efficacy, change from baseline to week 16. It counts as in vivo. Particulars: change from baseline at week 16. On the procedure: as §1, §2
Primary endpoint: Percent change from baseline in total pulmonary resistance (TPR) to week 16. The sample size was estimated for an expected mean difference in TPR of 28%.
as §3, §4
In Table 1 the results are expressed as changes from baseline at week 16. Mean±SD (standard deviation) and median change (in brackets).

Where a name gives a salt, the structure may show the parent alone.

In the case of `CCCCC[C@H](O)/C=C/[C@@H]1[C@H]2C/C(=C/CCCC(=O)O)O[C@H]2C[C@H]1O` [Epoprostenol alone, (5Z, 9α, 111α, 13E, 15)-6,9-epoxy-11,15-dihydroxyprosta-5,13-dien-1-oic acid, sodium salt], in series [1], the “Heart Rate (bpm), median change from baseline to week 16” value is listed as 7.0 bpm and the “Systolic blood pressure (mmHg), change from baseline to week 16” value is listed as −9.8 ± 10.9%. Also, in series [2] (human, in vivo), the “FLUSHING, %” value is 45.5%; the “FLUSHING, No.” value came out at 5; the “HYPOTENSION, %” value came to 18.2%; the “HYPOTENSION, No.” value worked out at 2. Further, in series [2] (human, in vivo), the “PAIN IN JAW, %” value stood at 90.9% and the “PAIN IN JAW, No.” value is 10. In addition, in series [2] (number of patients with the adverse event, 11 patients epoprostenol alone, 22 bosentan with epoprostenol), the “HEADACHE, No.” value is on record as 4. Further, in series [2] (percent of patients with the adverse event), the “HEADACHE, %” value amounted to 36.4%. Moreover, the “CI, % mean change” value in series [3] (cardiac index, mean (SD in the next cell)) is recorded as 37.9%. For the same compound, in series [3] (mean (SD in the next cell)), the “CI, absolute change” value is on record as 0.57 L/min/m^2; the “TPR, absolute change” value is recorded as −386 dyn*sec/cm^5; the “mPAP, absolute change” value is on record as −1.6 mmHg. In series [3] (median (in brackets)), the “CI, % median change” value was “(30.0%)” and the “TPR, % median change” value was “(−14.3%)”. In addition, the “mRAP, absolute change” value in series [3] (mean right atrial pressure, mean (SD in the next cell)) came out at 0.3 mmHg. In addition, in series [3] (total pulmonary resistance, mean (SD in the next cell)), the “TPR, % mean change” value is recorded as −22.6%.
